Assay results: patent US12264349B2, “Method for producing monoterpenoid compounds” (John Innes Centre, priority 2018, dated 2025)
Where two headings read alike, the source gives them in different places.

Tests used:
[1] = molecular target: T1, NEPS1-WT (Nepeta racemosa, UniProt A0A3Q8GL18); experiment: NEPS1 dehydrogenase activity kinetics, spectrophotometric at 340 nm; assay type: biochemical, Nepeta mussinii; conditions: for Kcat or V (velocity V, single substrate concentration): substrate 1000 μM
T1 construct: made in house; host or cells: E. coli SoluBL21
T1 sequence (A0A3Q8GL18 1-271): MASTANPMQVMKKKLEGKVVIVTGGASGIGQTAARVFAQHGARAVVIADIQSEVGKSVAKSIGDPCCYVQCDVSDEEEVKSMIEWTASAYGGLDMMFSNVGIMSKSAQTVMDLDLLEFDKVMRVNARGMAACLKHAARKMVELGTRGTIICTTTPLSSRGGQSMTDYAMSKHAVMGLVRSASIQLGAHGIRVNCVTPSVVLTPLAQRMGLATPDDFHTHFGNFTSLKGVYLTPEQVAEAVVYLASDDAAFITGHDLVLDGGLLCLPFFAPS
Protocol: (§1) Kinetics and dehydrogenase activity measurements were conducted spectrophotometrically on a PerkinElmer Lambda 35 instrument at a wavelength of 340 nm and in cuvettes with 1 cm path length. The reactions were conducted at 25° C. and with 50 mM HEPES pH 8.0, […].
(§2) Reactions were initiated by addition of the enzyme, and absorbance values were recorded at a rate of 1 Hz. Enzyme concentration was varied from 0.025-0.25 μM to maintain a linear rate. The R software environment was used to fit linear initial rates over the first 20 s of the enzyme reaction. For Michaelis-Menten experiments, at least 8 data points were obtained for each substrate combination. The Michaelis-Menten equation was fitted to the data points in R by the nls function to obtain values for the kinetic parameters. Kinetic parameters are reported as a best fit estimate±SE. For activity measurements with NADP^+ and NADH, single substrate concentrations were employed. Velocity values (in italics) are provided as a mean of triplicate measurements±standard deviation from the mean.

[2] = Nepetalactol stability in buffer (GC-MS); assay type: physicochemical; conditions: 30° C.
Protocol: Cis-trans-nepetalactol (4a, FIG. 10A) and cis-cis-nepetalactol (4b, FIG. 10B) stability in 10 mM and 0.5 M MOPS pH 7.5. 4a appears to be stable in both these conditions. 4b appears mostly stable in 10 mM MOPS pH 7.5, but is not stable in high buffer concentrations (0.5 M MOPS pH 7.5) and degrades to form iridodials 5. Chromatograms are all GC-MS TICs, RT=retention time (min), incubation was 16 h, 30° C.
End-point assays with purified enzymes were conducted at a total volume of 100 μL. Reactions using either 8-oxogeranial 2 or 8-oxocitronellal 6 as a substrate contained 1% v/v MeCN. In experiments examining the effect of buffer concentrations, enzymes were diluted with water. Trace residual concentrations of sample buffer in the enzyme sample were too low to effect product profiles. All reactions were conducted at 30° C. Reactions containing 8-oxogeranial 2 as a substrate were incubated for 3 h, whilst reactions with 8-oxocitronellal 6 were incubated for 16 h, unless noted. At reaction termination, a camphor standard (10 μL, stock 1 mM in MeCN) and EtOAc (100 μL) were added. The reactions were vortexed, centrifuged (10,000×g, 10 min) and the organic layer was used in GC-MS analysis. The concentrations of components in reactions varied extensively and so for each reaction the Figure or Figure legend describe the exact conditions employed.
Samples were injected in split mode (2 μL, split ratio 5:1) at an inlet temperature of 220° C. on a Hewlett Packard 6890 GC-MS equipped with a 5973 mass selective detector (MSD), and an Agilent 7683B series injector and autosampler. Separation was performed on a Zebron ZB5-HT-INFERNO column (5% phenyl methyl siloxane; length: 35 m; diameter: 250 μm) with guard column. Helium was used as mobile phase at a constant flow rate of 1.2 mL/min and average velocity 37 cm/s. After 5 min at 80° C., the column temperature was increased to 110° C. at a rate of 2.5 K/min, then to 280° C. at 120 K/min, and kept at 280° C. for another 4 min. A solvent delay of 5 min was allowed before collecting MS spectra at a fragmentation energy of 70 eV. An internal standard of (+)-camphor was used for retention time calibration. Chemically characterised standards were used to identify compounds by retention time and electron impact spectra.

[3] = molecular target: T2, NEPS1-T154G (Nepeta racemosa, UniProt A0A3Q8GL18, T154G); assay type: biochemical, Nepeta mussinii
T2 construct: This gene-length amplicon was gel-purified and then cloned into the pOPINF vector; made in house; host or cells: E. coli SoluBL21
Protocol: as §1, §2

[4] = co-substrate NAD+ 1 mM, 25° C., 50 mM HEPES pH 8.0
[5] = co-substrate 4a 0.5 mM, substrate 7.8-1000 μM
[6] = co-substrate 4a 0.1 mM, substrate 1-250 μM
[7] = co-substrate NAD+ 1 mM, substrate 50-750 μM

In the case of `CC1=COC(=O)[C@H]2[C@@H]1CC[C@@H]2C` (relative stereo) [1a, cis-trans-nepetalactone], the “Kcat or V (velocity V, single substrate concentration)” value ([1]; co-substrate NADH 0.1 mM) is reported as “no reaction”.

In the case of `NC(=O)c1ccc[n+]([C@@H]2O[C@H](COP(=O)([O-])OP(=O)(O)OC[C@H]3O[C@@H](n4cnc5c(N)ncnc54)[C@H](OP(=O)(O)O)[C@@H]3O)[C@@H](O)[C@H]2O)c1` [NADP+, reference compound], the “Kcat or V (velocity V, single substrate concentration)” value ([1]; co-substrate 4a 0.1 mM) is reported as 0.020 ± 0.005 s⁻¹.

For `CC1=COC(O)[C@H]2[C@@H](C)CC[C@@H]12` (relative stereo) [4b, cis-cis-nepetalactol], the stability in buffer ([2]; 10 mM MOPS pH 7.5, 16 h) was “mostly stable”, the stability in buffer ([2]; 0.5 M MOPS pH 7.5, 16 h) was “not stable” and the “Kcat or V (kcat, substrate concentration varied)” value [1, 4] was 0.32 ± 0.01 s⁻¹. For the same compound, the Km [1, 4] was 4.9 ± 0.8 µM.

With `NC(=O)c1ccc[n+]([C@@H]2O[C@H](COP(=O)([O-])OP(=O)(O)OC[C@H]3O[C@@H](n4cnc5c(N)ncnc54)[C@H](O)[C@@H]3O)[C@@H](O)[C@H]2O)c1` [NAD+, oxidized nicotinamide adenine dinucleotide, reference compound] the “Kcat or V (kcat, substrate concentration varied)” value [3, 5] was 0.0599 ± 0.002 s⁻¹, the Km [3, 5] was 26 ± 4 µM and the “Kcat or V (kcat, substrate concentration varied)” value [1, 6] was 0.173 ± 0.003 s⁻¹. For the same compound, the Km [1, 6] was 3.5 ± 0.3 µM.

With `CC1=COC(O)[C@H]2[C@@H]1CC[C@@H]2C` (relative stereo) [4a, cis-trans-nepetalactol] the “increase in Km caused by the T154G substitution” value ([3]; NEPS1-T154G versus NEPS1-WT) was 150 fold, the “Kcat or V (kcat, substrate concentration varied)” value [3, 7] was 0.0804 ± 0.005 s⁻¹ and the Km [3, 7] was 251 ± 37 µM. For the same compound, the stability in buffer ([2]; 10 mM MOPS pH 7.5, 16 h) was “stable”, the stability in buffer ([2]; 0.5 M MOPS pH 7.5, 16 h) was “stable” and the “Kcat or V (kcat, substrate concentration varied)” value [1, 4] was 0.148 ± 0.002 s⁻¹. It also gave a Km [1, 4] of 1.6 ± 0.1 µM.
